Reference: patent US20240343704A1, “HALO-SUBSTITUTED AMINO PYRIDINE COMPOUNDS AS INHIBITORS OF THE HAEMATOPOIETIC PROGENITOR KINASE 1 (HPK1)” (priority 2021, published 2024)

Key:
[1] = target: T1, Recombinant (1-346) HPK1 (h) (Homo sapiens, UniProt Q92918); test: HPK1 Human STE Kinase Enzymatic Radiometric Assay; format: biochemical; settings: read-out: HPK1 IC50 nM Range*
T1 construct: Recombinant (1-346) HPK1 (h) is incubated with 8 mM MOPS pH 7.0
T1 sequence (Q92918 1-346): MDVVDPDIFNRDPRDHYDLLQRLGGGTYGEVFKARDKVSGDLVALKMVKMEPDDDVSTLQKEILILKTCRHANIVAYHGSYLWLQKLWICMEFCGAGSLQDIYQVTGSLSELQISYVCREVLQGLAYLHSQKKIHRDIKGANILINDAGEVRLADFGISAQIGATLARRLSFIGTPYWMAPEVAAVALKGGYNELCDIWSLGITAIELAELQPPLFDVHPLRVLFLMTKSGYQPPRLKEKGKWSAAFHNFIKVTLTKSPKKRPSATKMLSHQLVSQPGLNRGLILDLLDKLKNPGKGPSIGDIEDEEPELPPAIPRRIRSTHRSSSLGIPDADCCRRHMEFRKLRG
Description: A stock solution of 10 mM of test compound is prepared in DMSO. The compound plate was prepared by 3-fold and 9-point serial dilutions. […] The reaction is initiated by The addition of the Mg/ATP mix. After incubation for 40 minutes at RT, the reaction is stopped by the addition of phosphoric acid to a concentration of 0.5%.

Lck (h) = Lck (h) (Homo sapiens, UniProt P06239); test: Lck Human  Kinase Enzymatic Radiometric Assay; format: biochemical; settings: read-out: Lck IC50 nM Range*
Description: Lck (h) is incubated with 50 mM Tris pH 7.5, 0.1 mM EGTA, 0.1 mM Na3VO4, 250 uM KVEKIGEGTYGVVYK (Cdc2 peptide), 10 mM MgAcetate and [gamma-33P]-ATP (specific activity and concentration as required). The reaction is initiated by the addition of the Mg/ATP mix. After incubation for 40 minutes at RT, the reaction is stopped by the addition of phosphoric acid to a concentration of 0.5%. 10 uL of the reaction is then spotted onto a P30 filtermat and washed four times for 4 minutes in 0.425% phosphoric acid and once in methanol prior to drying and scintillation counting. For more details on the kinase assay procedures see: Gao, Y. et. al.; Biochem J., 451 (2): 313-328, 2013.

Lck (h), sequence (P06239 whole entry): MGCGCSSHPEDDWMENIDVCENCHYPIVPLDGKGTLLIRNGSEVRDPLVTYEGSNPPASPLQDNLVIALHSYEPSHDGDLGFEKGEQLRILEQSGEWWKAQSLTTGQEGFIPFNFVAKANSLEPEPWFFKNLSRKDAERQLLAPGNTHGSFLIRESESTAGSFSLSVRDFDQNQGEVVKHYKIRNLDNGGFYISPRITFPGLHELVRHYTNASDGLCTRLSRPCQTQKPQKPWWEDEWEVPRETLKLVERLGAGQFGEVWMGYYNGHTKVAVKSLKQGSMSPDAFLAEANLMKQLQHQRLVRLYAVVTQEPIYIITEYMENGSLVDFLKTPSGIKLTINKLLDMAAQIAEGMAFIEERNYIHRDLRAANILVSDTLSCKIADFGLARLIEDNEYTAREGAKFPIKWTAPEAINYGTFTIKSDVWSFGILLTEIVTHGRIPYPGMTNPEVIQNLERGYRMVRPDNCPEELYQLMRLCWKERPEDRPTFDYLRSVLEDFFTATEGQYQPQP

| IC50 [1] [nM] | IC50 (Lck (h)) [nM] | Structure (SMILES) |
| --- | --- | --- |
| 0.1 to 10 | > 1000 | Nc1nc(F)c(-c2ccc(OC3CCNCC3)c(F)c2)cc1-c1ccc2c(c1)CCNC2=O [I-179, 6-(2-amino-6-fluoro-5-(3-fluoro-4-(piperidin-4-yloxy)phenyl)pyridin-3-yl)-3,4-dihydroisoquinolin-1(2H)-one] |
| 0.1 to 10 | > 1000 | Nc1nc(F)c(-c2ccc(N3CCN(CC(F)(F)F)CC3)cc2)cc1-c1cc2c(cc1F)C(=O)NCC2 [I-237, 6-(2-amino-6-fluoro-5-(4-(4-(2,2,2-trifluoroethyl)piperazin-1-yl)phenyl)pyridin-3-yl)-7-fluoro-3,4-dihydroisoquinolin-1(2H)-one] |
| 0.1 to 10 | > 1000 | COCC(=O)N1C[C@H]2C[C@@]2(c2ccc(-c3cc(-c4ccc5c(c4)CCNC5=O)c(N)nc3F)cc2)C1 [I-220, 6-(2-amino-6-fluoro-5-(4-((1R,5S)-3-(2-methoxyacetyl)-3-azabicyclo[3.1.0]hexan-1-yl)phenyl)pyridin-3-yl)-3,4-dihydroisoquinolin-1(2H)-one] |
| 0.1 to 10 | > 1000 | CC(=O)N1CCC(Oc2ccc(-c3cc(-c4ccc5c(c4)CCNC5=O)c(N)nc3F)cc2)CC1 [I-34, 6-(5-(4-((1-acetylpiperidin-4-yl)oxy)phenyl)-2-amino-6-fluoropyridin-3-yl)-3,4-dihydroisoquinolin-1(2H)-one] |
| 0.1 to 10 | > 1000 | Nc1nc(F)c(-c2ccc(N3CCN4CCOC[C@H]4C3)cc2)cc1-c1ccc2c(c1)CCNC2=O [I-38, (R)-6-(2-amino-6-fluoro-5-(4-(hexahydropyrazino[2,1-c][1,4]oxazin-8(1H)-yl)phenyl)pyridin-3-yl)-3,4-dihydroisoquinolin-1(2H)-one] |
| 0.1 to 10 | > 1000 | Nc1nc(F)c(-c2ccc(N3CCC(F)CC3)cc2)cc1-c1ccc2c(c1)CCNC2=O [I-163, 6-(2-amino-6-fluoro-5-(4-(4-fluoropiperidin-1-yl)phenyl)pyridin-3-yl)-3,4-dihydroisoquinolin-1(2H)-one] |
| 0.1 to 10 | 101 to 1000 | CCN1CCN(c2ccc(-c3cc(-c4ccc5c(c4)C(C)(C)CNC5=O)c(N)nc3F)cc2)CC1 [I-69, 6-(2-amino-5-(4-(4-ethylpiperazin-1-yl)phenyl)-6-fluoropyridin-3-yl)-4,4-dimethyl-3,4-dihydroisoquinolin-1(2H)-one] |
| 0.1 to 10 | > 1000 | Nc1nc(F)c(-c2ccc(N3C[C@@H]4CCO[C@@H]4C3)cc2)cc1-c1ccc2c(c1)CCNC2=O [I-92, 6-(2-amino-6-fluoro-5-(4-((3aS,6aS)-hexahydro-5H-furo[2,3-c]pyrrol-5-yl)phenyl)pyridin-3-yl)-3,4-dihydroisoquinolin-1(2H)-one] |
| 11 to 100 | > 1000 | Nc1cc2cc(-c3cc(-c4ccc5c(c4)CCNC5=O)c(N)nc3F)c(F)c(Cl)c2cn1 [I-227, 6-(2-amino-5-(3-amino-8-chloro-7-fluoroisoquinolin-6-yl)-6-fluoropyridin-3-yl)-3,4-dihydroisoquinolin-1(2H)-one] |
| 0.1 to 10 | > 1000 | COCCN1CC=C(c2ccc(-c3cc(-c4ccc5c(c4)CCNC5=O)c(N)nc3F)cc2)C1 [I-124, 6-(2-amino-6-fluoro-5-(4-(1-(2-methoxyethyl)-2,5-dihydro-1H-pyrrol-3-yl)phenyl)pyridin-3-yl)-3,4-dihydroisoquinolin-1(2H)-one] |
| 0.1 to 10 | > 1000 | CC(C)N1CCN(c2ccc(-c3cc(-c4cc5c(cc4F)C(=O)NCC5)c(N)nc3F)cc2C(F)(F)F)CC1 [I-263, 6-(2-amino-6-fluoro-5-(4-(4-isopropylpiperazin-1-yl)-3-(trifluoromethyl)phenyl)pyridin-3-yl)-7-fluoro-3,4-dihydroisoquinolin-1(2H)-one] |
| 0.1 to 10 | > 1000 | CN1CCOc2cc(-c3cc(-c4ccc5c(c4)CCNC5=O)c(N)nc3F)ccc21 [I-58, 6-(2-amino-6-fluoro-5-(4-methyl-3,4-dihydro-2H-benzo[b][1,4]oxazin-7-yl)pyridin-3-yl)-3,4-dihydroisoquinolin-1(2H)-one] |
| 11 to 100 | > 1000 | CCS(=N)(=O)c1ccc(-c2cc(-c3ccc4c(c3)CCNC4=O)c(N)nc2F)cc1 (stereo not shown) [I-85, 6-(2-amino-5-(4-(ethylsulfonimidoyl)phenyl)-6-fluoropyridin-3-yl)-3,4-dihydroisoquinolin-1(2H)-one] |
| 11 to 100 | > 1000 | Nc1nc(F)c(-c2ccc(N3CC[C@H](F)C3)cc2)cc1-c1ccc2c(c1)CCNC2=O [I-113, (S)-6-(2-amino-6-fluoro-5-(4-(3-fluoropyrrolidin-1-yl)phenyl)pyridin-3-yl)-3,4-dihydroisoquinolin-1(2H)-one] |
| 0.1 to 10 | > 1000 | CC(C)N1CC2C(F)(F)C2(c2ccc(-c3cc(-c4ccc5c(c4)CCNC5=O)c(N)nc3F)cc2)C1 (stereo not shown) [I-171, 6-(2-amino-5-(4-(6,6-difluoro-3-isopropyl-3-azabicyclo[3.1.0]hexan-1-yl)phenyl)-6-fluoropyridin-3-yl)-3,4-dihydroisoquinolin-1(2H)-one] |
| 0.1 to 10 | 101 to 1000 | C[C@H](C1CC1)N1CCN(c2ccc(-c3cc(-c4cc(F)c5c(=O)[nH]ccc5c4)c(N)nc3F)cc2)CC1 [I-391, (R)-6-(2-amino-5-(4-(4-(1-cyclopropylethyl)piperazin-1-yl)phenyl)-6-fluoropyridin-3-yl)-8-fluoroisoquinolin-1(2H)-one] |
| 11 to 100 | > 1000 | Nc1nc(F)c(-c2ccc(C3CN(CC(F)(F)F)CCO3)cc2)cc1-c1ccc2c(c1)CCNC2=O (stereo not shown) [I-90, 6-(2-amino-6-fluoro-5-(4-(4-(2,2,2-trifluoroethyl)morpholin-2-yl)phenyl)pyridin-3-yl)-3,4-dihydroisoquinolin-1(2H)-one] |
| 11 to 100 | 101 to 1000 | CN1CCN(c2ccc(-c3cnc(N)c(-c4ccc5c(c4)CCNC5=O)c3F)cc2)CC1 [I-1, 6-(2-amino-4-fluoro-5-(4-(4-methylpiperazin-1-yl)phenyl)pyridin-3-yl)-3,4-dihydroisoquinolin-1(2H)-one] |
| 0.1 to 10 | > 1000 | COCCN1CCC2(CC1)CC(=O)c1cc(-c3cc(-c4ccc5c(c4)CCNC5=O)c(N)nc3F)ccc1O2 [I-215, 6-(6-amino-2-fluoro-5-(1-oxo-1,2,3,4-tetrahydroisoquinolin-6-yl)pyridin-3-yl)-1′-(2-methoxyethyl)spiro[chromane-2,4′-piperidin]-4-one] |
| 0.1 to 10 | > 1000 | CN(C)Cc1cc(-c2cc(-c3cc4c(cc3F)C(=O)NCC4)c(N)nc2F)ccc1C1CCOCC1 [I-429, 6-(2-amino-5-(3-((dimethylamino)methyl)-4-(tetrahydro-2H-pyran-4-yl)phenyl)-6-fluoropyridin-3-yl)-7-fluoro-3,4-dihydroisoquinolin-1(2H)-one] |
| 0.1 to 10 | > 1000 | Nc1nc(F)c(-c2ccc(N3CCOCC3)cc2)cc1-c1cc2c(cc1F)C(=O)NCC2 [I-19, 6-(2-amino-6-fluoro-5-(4-morpholinophenyl)pyridin-3-yl)-7-fluoro-3,4-dihydroisoquinolin-1(2H)-one] |
| 0.1 to 10 | > 1000 | CC(=O)N1CC(F)(c2ccc(-c3cc(-c4ccc5c(c4)CCNC5=O)c(N)nc3F)cc2)C1 [I-342, 6-(5-(4-(1-acetyl-3-fluoroazetidin-3-yl)phenyl)-2-amino-6-fluoropyridin-3-yl)-3,4-dihydroisoquinolin-1(2H)-one] |
| 11 to 100 | > 1000 | Nc1nc(F)c(-c2ccc(OC3CCN(C4COC4)CC3)cc2)cc1-c1cc2c(cc1F)C(=O)NCC2 [I-325, 6-(2-amino-6-fluoro-5-(4-((1-(oxetan-3-yl)piperidin-4-yl)oxy)phenyl)pyridin-3-yl)-7-fluoro-3,4-dihydroisoquinolin-1(2H)-one] |
| 0.1 to 10 | > 1000 | CC1(C)CC(Oc2ccc(-c3cc(-c4ccc5c(c4)CCNC5=O)c(N)nc3F)cc2)CCN1 (stereo not shown) [I-147, 6-(2-amino-5-(4-((2,2-dimethylpiperidin-4-yl)oxy)phenyl)-6-fluoropyridin-3-yl)-3,4-dihydroisoquinolin-1(2H)-one] |
| 11 to 100 | > 1000 | Nc1nc(F)c(-c2ccc(C3COCCN3C3COC3)cc2)cc1-c1ccc2c(c1)CCNC2=O (stereo not shown) [I-154, 6-(2-amino-6-fluoro-5-(4-(4-(oxetan-3-yl)morpholin-3-yl)phenyl)pyridin-3-yl)-3,4-dihydroisoquinolin-1(2H)-one] |
| 0.1 to 10 | > 1000 | Nc1nc(F)c(-c2ccc(OC3CCN(C(=O)CC4CC4)CC3)cc2)cc1-c1cc2c(cc1F)C(=O)NCC2 [I-323, 6-(2-amino-5-(4-((1-(2-cyclopropylacetyl)piperidin-4-yl)oxy)phenyl)-6-fluoropyridin-3-yl)-7-fluoro-3,4-dihydroisoquinolin-1(2H)-one] |
